Reference: patent publication US20220153734A1, “Pyrazolopyridine Compounds For IRE1 Inhibition” (Optikira, LLC, priority 2019, published 2022)

Assays:
IRE1α [1] = biological target: T1, IRE1α (Homo sapiens, UniProt O75460); experiment: Biochemical assay to detect inhibition of kinase activity of IRE1α (ADP-Glo)
T1 construct: purchased Signal Chem E31-11G
Description: Biochemical Assays to Detect Inhibition of Kinase Activity of IRE1α
The kinase reactions were performed in 384 well white ProxiPlate-384 Plus plates (PERKIN Elmer 6008280) using 25 mM MOPS assay buffer with 1 mM dithiothreitol, 25 mM MgCl2, 12.5 mM β-glycerophosphate, 5 mM EGTA, and 50 μg/mL BSA. Test compounds were prepared on the day of assay and dispensed using D300 digital dispenser as a 10-point ½ log dilution series in duplicate, normalized to a final DMSO concentration of 3%. Test compounds were pre-incubated for 30 min at room temperature with 10 nM IRE1α kinase (E31-11G from Signal Chem) in 2.5 μL of assay buffer and the reaction started by addition of 2.5 μL of ATP in assay buffer, to give a final ATP concentration of 100 μM and 5 nM IRE1α kinase. After 4 hours incubation at room temperature the reactions were stopped and the kinase activity determined using the ADP-Glo™ reagent from Promega, according to the manufacturer's instructions. Luminescence was measured on a luminometer (EnVision, PerkinElmer) and IC50 values calculated by fitting a sigmoidal curve to percent inhibition of control versus Log10 of compound concentration.

IRE1α [2] = biological target: T1, IRE1α; experiment: Biochemical assay: inhibition of RNase activity of IRE1α; conditions: enzyme 0.325 nM, substrate 100 nM, 20 minutes
Method in brief: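 Recombinant IRE1α (0.325 nM final) pre-incubated 30 min at room temperature with compounds (10-point ½-log series, duplicate, 4% DMSO final). Then 100 nM fluorophore/quencher-labelled RNA substrate added in 50 mM Tris, 0.5 mM MgCl2, 10 mM KCl, 2 mM DTT. Urea stop after 20 min; fluorescence read; IC50 from sigmoidal fit.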

[3] = tested on: ARPE-19 cells stably expressing XBP1 (a.a. 1-376); experiment: Cellular XBP1 splicing assay (NanoLuc luciferase, thapsigargin); type: cell-based; conditions: thapsigargin 150 nM
Method in brief: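 ARPE-19 cells carrying an XBP1(1-376)-NanoLuc splicing reporter were pretreated with compound (10-point ½-log series, 0.117% DMSO) for 30 min, then stressed with 150 nM thapsigargin for 4 h at 37° C. Luminescence was read, and IC50 values came from sigmoidal fits of percent inhibition of control.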

T1 sequence (O75460 468-977 limits assumed): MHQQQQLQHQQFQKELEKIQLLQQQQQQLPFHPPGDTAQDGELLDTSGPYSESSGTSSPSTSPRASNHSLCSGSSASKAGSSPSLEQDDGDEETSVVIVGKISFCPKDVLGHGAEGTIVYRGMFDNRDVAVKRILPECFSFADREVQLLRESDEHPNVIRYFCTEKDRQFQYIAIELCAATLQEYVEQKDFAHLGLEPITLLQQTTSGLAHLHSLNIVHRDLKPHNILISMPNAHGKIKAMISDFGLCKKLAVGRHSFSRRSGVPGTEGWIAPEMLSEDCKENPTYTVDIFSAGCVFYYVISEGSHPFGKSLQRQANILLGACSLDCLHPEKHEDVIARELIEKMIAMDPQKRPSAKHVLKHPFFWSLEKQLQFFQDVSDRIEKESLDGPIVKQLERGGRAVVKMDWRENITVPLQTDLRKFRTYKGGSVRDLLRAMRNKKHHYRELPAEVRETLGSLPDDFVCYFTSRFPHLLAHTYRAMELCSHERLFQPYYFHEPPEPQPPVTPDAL

Row | IC50 (IRE1α [1]) | IC50 (IRE1α [2]) | IC50 ([3]; 4 hour) | IC50 ([3]; Homo sapiens, ARPE-19, 4 h) | SMILES
1 | 5.2 nM | 5.1 nM | 47 nM |  | CC(C)n1nc(-c2cc(F)c(NS(=O)(=O)Cc3ccccc3Cl)cc2F)c2c(N)ncc(C3=CCC(NC4COC4)CC3)c21 (single isomer, unassigned) [Compound B6, N-(4-(4-amino-1-isopropyl-7-(4-(oxetan-3-ylamino)cyclohex-1-en-1-yl)-1H-pyrazolo[4,3-c]pyridin-3-yl)-2,5-difluorophenyl)-1-(2-chlorophenyl)methanesulfonamide]
2 | 4.1 nM | 2.7 nM | 22 nM |  | CCn1nc(-c2ccc(NS(=O)(=O)Cc3ccccc3F)c(F)c2)c2c(N)ncc(C3=CCC(NC4COC4)CC3)c21 (single isomer, unassigned) [Compound B26, N-(4-(4-amino-1-ethyl-7-(4-(oxetan-3-ylamino)cyclohex-1-en-1-yl)-1H-pyrazolo[4,3-c]pyridin-3-yl)-2-fluorophenyl)-1-(2-fluorophenyl)methanesulfonamide]
3 | 3.9 nM | 2.4 nM | 27 nM |  | CCn1nc(-c2ccc(NS(=O)(=O)Cc3ccccc3Cl)c(F)c2)c2c(N)ncc(C3=CCC(NC4COC4)CC3)c21 (single isomer, unassigned) [Compound B28, N-(4-(4-amino-1-ethyl-7-(4-(oxetan-3-ylamino)cyclohex-1-en-1-yl)-1H-pyrazolo[4,3-c]pyridin-3-yl)-2-fluorophenyl)-1-(2-chlorophenyl)methanesulfonamide]
4 | 3 nM | 3.2 nM |  | 19 nM | CCn1nc(-c2cc(F)c(NS(=O)(=O)Cc3ccccc3Cl)cc2F)c2c(N)ncc([C@H]3CC[C@H](NC4COC4)CC3)c21 [Compound A42, N-(4-(4-amino-1-ethyl-7-((1r,4r)-4-(oxetan-3-ylamino)cyclohexyl)-1H-pyrazolo[4,3-c]pyridin-3-yl)-2,5-difluorophenyl)-1-(2-chlorophenyl)methanesulfonamide]
5 |  | 82 nM |  | 740 nM | CCn1nc(-c2cc(F)c(NS(=O)(=O)c3ccccc3F)cc2F)c2c(N)ncc(C3=CCC(NC4COC4)CC3)c21 (stereo not drawn) [Compound B30, N-(4-(4-amino-1-ethyl-7-(4-(oxetan-3-ylamino)cyclohex-1-en-1-yl)-1H-pyrazolo[4,3-c]pyridin-3-yl)-2,5-difluorophenyl)-2-fluorobenzenesulfonamide]
6 |  | 47 nM |  | 130 nM | CCn1nc(-c2cc(F)c(NS(=O)(=O)c3ccccc3Cl)cc2F)c2c(N)ncc(C3=CCC(NC4COC4)CC3)c21 (stereo not drawn) [Compound B31, N-(4-(4-amino-1-ethyl-7-(4-(oxetan-3-ylamino)cyclohex-1-en-1-yl)-1H-pyrazolo[4,3-c]pyridin-3-yl)-2,5-difluorophenyl)-2-chlorobenzenesulfonamide]
7 |  | 21 nM |  | 340 nM | CCn1nc(-c2cc(F)c(NS(=O)(=O)Cc3ccccc3Cl)cc2F)c2c(N)ncc(C3=CCC(NC4COC4)CC3)c21 (stereo not drawn) [Compound B32, N-(4-(4-amino-1-ethyl-7-(4-(oxetan-3-ylamino)cyclohex-1-en-1-yl)-1H-pyrazolo[4,3-c]pyridin-3-yl)-2,5-difluorophenyl)-1-(2-chlorophenyl)methanesulfonamide]

The next lines start with the molecule.

Row | SMILES | IC50 (IRE1α [1]) | IC50 (IRE1α [2]) | IC50 ([3]; 4 hour) | IC50 ([3]; Homo sapiens, ARPE-19, 4 h)
8 | CC(C)n1nc(-c2ccc(NS(=O)(=O)Cc3ccccc3F)c(F)c2)c2c(N)ncc(C3=CCC(NC4COC4)CC3)c21 (single isomer, unassigned) [Compound B2, N-(4-(4-amino-1-isopropyl-7-(4-(oxetan-3-ylamino)cyclohex-1-en-1-yl)-1H-pyrazolo[4,3-c]pyridin-3-yl)-2-fluorophenyl)-1-(2-fluorophenyl)methanesulfonamide] | 1.9 nM | 0.8 nM | 6.5 nM | 
9 | CC(C)n1nc(-c2cc(F)c(NS(=O)(=O)c3ccccc3Cl)cc2F)c2c(N)ncc(C3=CCC(NC4COC4)CC3)c21 (single isomer, unassigned) [Compound B10, N-(4-(4-amino-1-isopropyl-7-(4-(oxetan-3-ylamino)cyc1ohex-1-en-1-yl)-1H-pyrazolo[4,3-c]pyridin-3-yl)-2,5-difluorophenyl)-2-chlorobenzenesulfonamide] | 7 nM | 13 nM | 57 nM | 
10 | CC(C)n1nc(-c2ccc(NS(=O)(=O)Cc3ccccc3Cl)c(F)c2)c2c(N)ncc(C3=CCC(NC4COC4)CC3)c21 (single isomer, unassigned) [Compound B12, N-(4-(4-amino-1-isopropyl-7-(4-(oxetan-3-ylamino)cyclohex-1-en-1-yl)-1H-pyrazolo[4,3-c]pyridin-3-yl)-2-fluorophenyl)-1-(2-chlorophenyl)methanesulfonamide] | 1.8 nM | 1.6 nM | 14 nM | 
11 | CC(C)n1nc(-c2ccc(NS(=O)(=O)c3ccccc3F)c(F)c2)c2c(N)ncc(C3=CCC(NC4COC4)CC3)c21 (single isomer, unassigned) [Compound B59, N-(4-(4-amino-1-isopropyl-7-(4-(oxetan-3-ylamino)cyclohex-1-en-1-yl)-1H-pyrazolo[4,3-c]pyridin-3-yl)-2-fluorophenyl)-2-fluorobenzenesulfonamide] | 5.9 nM |  | 36 nM | 
12 | CC(C)n1nc(-c2ccc(NS(=O)(=O)c3ccccc3F)c(F)c2)c2c(N)ncc([C@H]3CC[C@H](NC4COC4)CC3)c21 [Compound A1, N-(4-(4-amino-1-isopropyl-7-((1r,4r)-4-(oxetan-3-ylamino)cyclohexyl)-1H-pyrazolo[4,3-c]pyridin-3-yl)-2-fluorophenyl)-2-fluorobenzenesulfonamide] | 1.9 nM | 5.7 nM |  | 7.9 nM
13 | CC(C)n1nc(-c2ccc(NS(=O)(=O)c3ccccc3Cl)c(F)c2)c2c(N)ncc([C@H]3CC[C@H](NC4COC4)CC3)c21 [Compound A34, N-(4-(4-amino-1-isopropyl-7-((1r,4r)-4-(oxetan-3-ylamino)cyclohexyl)-1H-pyrazolo[4,3-c]pyridin-3-yl)-2-fluorophenyl)-2-chlorobenzenesulfonamide] | 3 nM | 3.5 nM |  | 4.3 nM
14 | Nc1ncc([C@H]2CC[C@H](NC3COC3)CC2)c2c1c(-c1ccc(NS(=O)(=O)c3ccccc3F)c(F)c1)nn2C1CC1 [Compound A41, N-(4-(4-amino-1-cyclopropyl-7-((1r,4r)-4-(oxetan-3-ylamino)cyclohexyl)-1H-pyrazolo[4,3-c]pyridin-3-yl)-2-fluorophenyl)-2-fluorobenzenesulfonamide] | 4.3 nM | 8 nM |  | 16 nM
15 | CCn1nc(-c2cc(F)c(NS(=O)(=O)Cc3ccccc3F)cc2F)c2c(N)ncc([C@H]3CC[C@H](NC4COC4)CC3)c21 [Compound A43, N-(4-(4-amino-1-ethyl-7-((1r,4r)-4-(oxetan-3-ylamino)cyclohexyl)-1H-pyrazolo[4,3-c]pyridin-3-yl)-2,5-difluorophenyl)-1-(2-fluorophenyl)methanesulfonamide] | 3.2 nM | 5.4 nM |  | 52 nM
16 | COCC(C)N[C@H]1CC[C@H](c2cnc(N)c3c(-c4ccc(NS(=O)(=O)Cc5ccccc5Cl)c(F)c4)nn(C(C)C)c32)CC1 (stereo partly drawn) [Compound A58, N-(4-(4-amino-1-isopropyl-7-((1r,4r)-4-((1-methoxypropan-2-yl)amino)cyclohexyl)-1H-pyrazolo[4,3-c]pyridin-3-yl)-2-fluorophenyl)-1-(2-chlorophenyl)methanesulfonamide] |  | 0.6 nM |  | 4.9 nM
17 | COCC(C)NC1CC=C(c2cnc(N)c3c(-c4ccc(NS(=O)(=O)c5ccccc5Cl)c(F)c4)nn(C(C)C)c23)CC1 (stereo not drawn) [Compound B3] |  | 7 nM |  | 11 nM
18 | CCn1nc(-c2ccc(NS(=O)(=O)c3cc(OC)ccc3Cl)c(F)c2)c2c(N)ncc(C3=CCC(NC4COC4)CC3)c21 (stereo not drawn) [Compound B37, N-(4-(4-amino-1-ethyl-7-(4-(oxetan-3-ylamino)cyclohex-1-en-1-yl)-1H-pyrazolo[4,3-c]pyridin-3-yl)-2-fluorophenyl)-2-chloro-5-methoxybenzenesulfonamide] |  | 20 nM |  | 74 nM
19 | CC(C)n1nc(-c2cc(F)c(NS(=O)(=O)c3ccccc3F)cc2F)c2c(N)ncc(C3=CCC(NC4COC4)CC3)c21 (stereo not drawn) [Compound B60, N-(4-(4-amino-1-isopropyl-7-(4-(oxetan-3-ylamino)cyclohex-1-en-1-yl)-1H-pyrazolo[4,3-c]pyridin-3-yl)-2,5-difluorophenyl)-2-fluorobenzenesulfonamide] |  | 79 nM |  | 240 nM
20 | CC(C)n1nc(-c2ccc(NS(=O)(=O)c3ccccc3Cl)c(F)c2)c2c(N)ncc(C3=CCC(NCCF)CC3)c21 (stereo not drawn) [Compound B63, N-(4-(4-amino-7-(4-((2-fluoroethyl)amino)cyclohex-1-en-1-yl)-1-isopropyl-1H-pyrazolo[4,3-c]pyridin-3-yl)-2-fluorophenyl)-2-chlorobenzenesulfonamide] |  | 16 nM |  | 21 nM
